# Experimental data published in US20070213408A1, “Use of Acetyl L-Carnitine for the Preparation of a Medicine for the Treatment of Neuropathic Pain in Diabetic Patients” (SIGMA-TAU INDUSTRIE FARMACEUTICHE RIUNITE S.P.A., priority 2004, published 2007).
# Key:
# [1] = tested on: Patients with type 2 diabetes on insulin treatment; test: Double-blind placebo-controlled clinical trials in diabetic peripheral neuropathy, VAS pain assessment, patients on insulin; assay type: in vivo, human; conditions: 52 weeks
# Description: (§1) Two double-blind placebo-controlled clinical trials, identical in their experimental design, were conducted in patients with diagnoses of diabetic peripheral neuropathy selected according to the criteria established in the San Antonio, Tex. conference (Diabetes 37:1000-1004, 1988).
# (§2) Acetyl L-carnitine was administered orally at doses of 1.5 g/day and 3.0 g/day for continuously for 52 weeks.
# (§3) One objective of the studies consisted in the possible modification of the Visual Analogue Scale (VAS) (Scott J. Huskisson EC. Graphic representation of pain. Pain 1976;2:175-184) in the subjective assessment of pain symptoms and the main sensorimotor clinical parameters.
# The second population comprised patients with type 2 diabetes treated with insulin. Here, too, the population included a placebo group (Group 4) matching up to the same inclusion criteria as the patients treated with acetyl L-carnitine (on insulin treatment).
# [2] = tested on: type I and II diabetics with symmetrical distal polyneuropathy or multineuropathy; conditions: treated patients out of 333 recruited; cited from earlier work
# [3] = tested on: patients with diabetic neuropathy; conditions: approximately 200 patients with diabetic neuropathy; cited from earlier work
# [4] = tested on: patients with diabetic neuropathy; conditions: 120 patients with diabetic neuropathy; cited from earlier work
# [5] = tested on: Patients with type 2 diabetes not on insulin treatment; test: Double-blind placebo-controlled clinical trials in diabetic peripheral neuropathy, VAS pain assessment, patients not on insulin; assay type: in vivo, human; conditions: for VAS: 52 weeks
# Description: as §1, §2, §3
structure (smiles),measurement,setting,value
"CC(=O)O[C@H](CC(=O)[O-])C[N+](C)(C)C [Acetyl L-carnitine, acetyl L-carnitine]",VAS,"[1]; 1.5 g/die orally, n = 41 pts",16.8 ± 30.1
same,VAS,"[1]; 3.0 g/day orally, n = 57 pts",25.9 ± 31.2
same,patients presenting an improvement in pain symptoms,[2],39%
same,difference between acetyl L-carnitine and placebo,[3],failed to show any significant difference
same,improvement in symptoms,[4],distinct improvement in symptoms
same,VAS,"[5]; 1.5 g/day orally, n = 39 pts",7.6 ± 34.7
same,VAS,"[5]; 3.0 g/day orally, n = 40 pts",24.2 ± 32.3
same,activity compared to the placebo group,"[5]; end of treatment, active only at higher dose (3 g/day)",active in a dose-related manner
